Data reported in ChEMBL document CHEMBL5244280, “Evodiamine Lowers Blood Lipids by Up-Regulating the PPARγ/ABCG1 Pathway in High-Fat-Diet-Fed Mice” (J Nat Prod, 2021).

Tested on: HEK293
Experiment: Agonist activity at human PPAR-beta expressed in HEK293 cells co-transfected with luciferase reporter plasmid assessed as receptor transactivation at 10 nM incubated for 18 hrs by luciferase reporter gene assay relative to control
Type: cell-based
Details: filed as agonist

Cc1cc(SCc2sc(-c3ccc(C(F)(F)F)c(F)c3)nc2C)ccc1OCC(=O)O
fold change (FC): 18.3
